Assay results published in PubChem BioAssay (NCI).
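Each compound was tested at five concentrations against cells in 96-well plates for 48 hours. GI50 is the concentration that inhibits growth by half. TGI denotes the concentration required for complete inhibition of growth.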

How the values were obtained:
Assay in all cases: NCI tumour cell line growth inhibition, 48 h
EKVX NSCLC = system: EKVX NSCLC
HCT-116 colon = system: HCT-116 colon
M14 melanoma = system: M14 melanoma
NCI-H226 lung = system: NCI-H226 lung
RXF 393 renal = system: RXF 393 renal
SF-268 CNS = system: SF-268 CNS
SNB-75 CNS = system: SNB-75 CNS
BT-549 breast = system: BT-549 breast
NCI/ADR-RES ovarian = system: NCI/ADR-RES ovarian
HS 578T breast = system: HS 578T breast

N#CC(C(=O)CCC(=O)C(C#N)c1ccccc1)c1ccccc1 (stereo not drawn)
TGI (EKVX NSCLC): > 100 µM
TGI (HCT-116 colon): > 100 µM
TGI (M14 melanoma): > 100 µM
TGI (NCI-H226 lung): > 100 µM
TGI (RXF 393 renal): > 100 µM
TGI (SF-268 CNS): > 100 µM
TGI (SNB-75 CNS): > 100 µM

CCOC(=O)N1CCc2cc(OC)c(OC)c3c2c1cc1cc(OC)c(OC)cc13
TGI (BT-549 breast): 3.65 µM
TGI (EKVX NSCLC): > 100 µM
TGI (HCT-116 colon): 30.7 µM
TGI (M14 melanoma): 63.6 µM
TGI (NCI-H226 lung): > 100 µM
TGI (NCI/ADR-RES ovarian): 5.37 µM
TGI (RXF 393 renal): 12.1 µM
TGI (SF-268 CNS): > 100 µM
TGI (SNB-75 CNS): 8.4 µM

O=c1cc2ccccc2nn1Cc1cccc(Cl)c1
TGI (EKVX NSCLC): > 100 µM
TGI (HCT-116 colon): > 100 µM
TGI (M14 melanoma): > 100 µM
TGI (NCI-H226 lung): > 100 µM
TGI (SF-268 CNS): > 100 µM
TGI (SNB-75 CNS): > 100 µM

Cc1ccc(/C=C2/SC(Nc3nc(-c4csc(NC5=NC(=O)/C(=C\c6ccc(C)cc6)S5)n4)cs3)=NC2=O)cc1
GI50 (EKVX NSCLC): 14.9 µM
TGI (EKVX NSCLC): > 50 µM
GI50 (HS 578T breast): 21.9 µM
TGI (HS 578T breast): > 50 µM
GI50 (M14 melanoma): 1.31 µM
TGI (M14 melanoma): 7.74 µM
GI50 (NCI-H226 lung): 1.58 µM
TGI (NCI-H226 lung): 28 µM
GI50 (NCI/ADR-RES ovarian): 14.3 µM
TGI (NCI/ADR-RES ovarian): > 50 µM
GI50 (RXF 393 renal): 23.8 µM
TGI (RXF 393 renal): > 50 µM
GI50 (SF-268 CNS): 8.98 µM
TGI (SF-268 CNS): > 50 µM

CC(C)[C@H](CO)Nc1nc(Nc2ccc(C(=O)NCCNS(=O)(=O)c3cccc4c(N(C)C)cccc34)c(Cl)c2)c2ncn(C(C)C)c2n1
GI50 (BT-549 breast): 1.96 µM
TGI (BT-549 breast): 7.46 µM
GI50 (HCT-116 colon): 2.57 µM
TGI (HCT-116 colon): > 100 µM
GI50 (HS 578T breast): 2.08 µM
TGI (HS 578T breast): > 100 µM
GI50 (M14 melanoma): 3.24 µM
TGI (M14 melanoma): > 100 µM
GI50 (NCI-H226 lung): 2.75 µM
TGI (NCI-H226 lung): > 40 µM
GI50 (NCI/ADR-RES ovarian): > 100 µM
TGI (NCI/ADR-RES ovarian): > 100 µM
GI50 (RXF 393 renal): 0.381 µM
TGI (RXF 393 renal): 1.78 µM
GI50 (SF-268 CNS): 2.47 µM
TGI (SF-268 CNS): 34.2 µM
GI50 (SNB-75 CNS): 1.75 µM
TGI (SNB-75 CNS): > 100 µM

O=C1C(Cl)=C(Nc2cccc(Cl)c2)C(=O)N1Cc1ccccc1Cl
GI50 (BT-549 breast): 4.31 µM
TGI (BT-549 breast): 26 µM
GI50 (EKVX NSCLC): 20.2 µM
TGI (EKVX NSCLC): 50.9 µM
GI50 (HCT-116 colon): 1.03 µM
TGI (HCT-116 colon): 4.41 µM
GI50 (HS 578T breast): 9.4 µM
TGI (HS 578T breast): 56.4 µM
GI50 (M14 melanoma): 4.41 µM
TGI (M14 melanoma): 19.4 µM
GI50 (NCI-H226 lung): 0.296 µM
TGI (NCI-H226 lung): 2.9 µM
GI50 (RXF 393 renal): 1.26 µM
TGI (RXF 393 renal): 6.53 µM
GI50 (SF-268 CNS): 13.1 µM
TGI (SF-268 CNS): 36 µM
GI50 (SNB-75 CNS): 5.48 µM
TGI (SNB-75 CNS): 30 µM

CC1(c2cccc3ccccc23)OC(=O)c2ccccc21 (stereo not drawn)
TGI (EKVX NSCLC): > 100 µM
TGI (HCT-116 colon): 34.6 µM
TGI (M14 melanoma): 37.2 µM
TGI (NCI-H226 lung): 48.3 µM
TGI (RXF 393 renal): 46.1 µM
TGI (SF-268 CNS): 93 µM
TGI (SNB-75 CNS): 46 µM

CCC1(c2c(F)c(F)c(N)c(F)c2F)CCC(=O)NC1=O (stereo not drawn)
TGI (EKVX NSCLC): > 100 µM
TGI (HCT-116 colon): > 100 µM
TGI (M14 melanoma): > 100 µM
TGI (NCI-H226 lung): > 100 µM
TGI (SF-268 CNS): > 100 µM
TGI (SNB-75 CNS): > 100 µM

CCOc1ccccc1NC(=O)CC1SC(=Nc2ccc([N+](=O)[O-])cc2)NC1=O (stereo not drawn)
TGI (EKVX NSCLC): 72.3 µM
TGI (HCT-116 colon): 29.3 µM
TGI (M14 melanoma): 50.9 µM
TGI (NCI-H226 lung): 41.8 µM
TGI (RXF 393 renal): 39.7 µM
TGI (SF-268 CNS): > 100 µM
TGI (SNB-75 CNS): 74.2 µM

O=C1/C(=C/c2ccccc2)CN(C(=O)c2cccnc2)C/C1=C\c1ccccc1
GI50 (EKVX NSCLC): 2.86 µM
TGI (EKVX NSCLC): 11.1 µM
GI50 (HCT-116 colon): 0.319 µM
TGI (HCT-116 colon): 0.88 µM
GI50 (HS 578T breast): 5.56 µM
TGI (HS 578T breast): 41.5 µM
GI50 (M14 melanoma): 1.93 µM
TGI (M14 melanoma): 5.17 µM
GI50 (NCI-H226 lung): 3.12 µM
TGI (NCI-H226 lung): 9.79 µM
GI50 (NCI/ADR-RES ovarian): 3.03 µM
TGI (NCI/ADR-RES ovarian): 21.2 µM
GI50 (RXF 393 renal): 1.72 µM
TGI (RXF 393 renal): 3.3 µM
GI50 (SF-268 CNS): 2.78 µM
TGI (SF-268 CNS): 13.7 µM
GI50 (SNB-75 CNS): 5.48 µM
TGI (SNB-75 CNS): 26.7 µM

N/C(=C\c1ccc(OCc2ccccc2)c(OCc2ccccc2)c1[N+](=O)[O-])C(=O)O
TGI (EKVX NSCLC): > 100 µM
TGI (HCT-116 colon): > 100 µM
TGI (M14 melanoma): > 100 µM
TGI (NCI-H226 lung): > 100 µM
TGI (RXF 393 renal): > 100 µM
TGI (SF-268 CNS): > 100 µM
TGI (SNB-75 CNS): > 100 µM

COC(=O)/C([Se]c1c(C)cc(C)cc1C)=C(\[Se]c1c(C)cc(C)cc1C)C(=O)OC
TGI (EKVX NSCLC): > 100 µM
TGI (HCT-116 colon): > 100 µM
TGI (M14 melanoma): > 100 µM
TGI (NCI-H226 lung): > 100 µM
TGI (RXF 393 renal): > 100 µM
TGI (SF-268 CNS): > 100 µM
TGI (SNB-75 CNS): > 100 µM

Cc1cc2nc(CCC(=O)O)c(=O)[nH]c2cc1C
TGI (EKVX NSCLC): > 100 µM
TGI (HCT-116 colon): > 100 µM
TGI (M14 melanoma): > 100 µM
TGI (NCI-H226 lung): > 100 µM
TGI (RXF 393 renal): > 100 µM
TGI (SF-268 CNS): > 100 µM
TGI (SNB-75 CNS): > 100 µM

Fc1ccc2c(c1)c(-c1nc(-c3c[nH]c4ncccc34)cs1)cn2CCCN1CCCCC1
GI50 (BT-549 breast): 3.72 µM
TGI (BT-549 breast): 14.5 µM
GI50 (HCT-116 colon): 1.75 µM
TGI (HCT-116 colon): 3.3 µM
GI50 (HS 578T breast): 2.59 µM
TGI (HS 578T breast): 7.69 µM
GI50 (M14 melanoma): 1.76 µM
TGI (M14 melanoma): 3.48 µM
GI50 (NCI/ADR-RES ovarian): 1.64 µM
TGI (NCI/ADR-RES ovarian): 3.15 µM
GI50 (SF-268 CNS): 1.64 µM
TGI (SF-268 CNS): 3.42 µM
GI50 (SNB-75 CNS): 1.34 µM
TGI (SNB-75 CNS): 2.98 µM

COc1cc2c3c(n(CCCN)c(=O)c2cc1OC)-c1cc2c(cc1/C3=C\CCN)OCO2
GI50 (EKVX NSCLC): 5.07 µM
TGI (EKVX NSCLC): 15.9 µM
GI50 (HCT-116 colon): 0.989 µM
GI50 (HS 578T breast): 11 µM
TGI (HS 578T breast): 55.7 µM
GI50 (M14 melanoma): 12.3 µM
TGI (M14 melanoma): 35.7 µM
GI50 (NCI-H226 lung): 1.45 µM
TGI (NCI-H226 lung): 5.9 µM
GI50 (NCI/ADR-RES ovarian): > 96.1 µM
TGI (NCI/ADR-RES ovarian): > 100 µM
GI50 (RXF 393 renal): 4.41 µM
TGI (RXF 393 renal): 14.8 µM
GI50 (SF-268 CNS): 0.993 µM
TGI (SF-268 CNS): 6.89 µM
GI50 (SNB-75 CNS): 1.85 µM
TGI (SNB-75 CNS): 8.02 µM

N#C/C(=C/c1ccc[nH]1)P(=O)(O)O
TGI (EKVX NSCLC): > 100 µM
TGI (HCT-116 colon): > 100 µM
TGI (M14 melanoma): > 100 µM
TGI (NCI-H226 lung): > 100 µM
TGI (RXF 393 renal): > 100 µM
TGI (SF-268 CNS): > 100 µM
TGI (SNB-75 CNS): > 100 µM

CCCCCCCCCCCCCC(=O)CC(=O)c1c(O)cccc1O
TGI (EKVX NSCLC): 68.8 µM
TGI (HCT-116 colon): > 100 µM
TGI (M14 melanoma): > 100 µM
TGI (NCI-H226 lung): 80.3 µM
TGI (RXF 393 renal): > 100 µM
TGI (SF-268 CNS): > 100 µM
TGI (SNB-75 CNS): > 100 µM

O=[N+]([O-])c1nccn1CC(O)CN1CC1 (stereo not drawn)
TGI (EKVX NSCLC): > 100 µM
TGI (HCT-116 colon): > 100 µM
TGI (M14 melanoma): > 100 µM
TGI (NCI-H226 lung): > 100 µM
TGI (RXF 393 renal): 98.2 µM
TGI (SF-268 CNS): > 100 µM
TGI (SNB-75 CNS): > 100 µM

C=C1C(=O)O[C@H]2[C@H]1CC/C(Cn1cc(-c3cc(C(F)(F)F)cc(C(F)(F)F)c3)nn1)=C\CC[C@@]1(C)O[C@@H]21
GI50 (BT-549 breast): 0.178 µM
TGI (BT-549 breast): 0.509 µM
GI50 (EKVX NSCLC): 1.5 µM
TGI (EKVX NSCLC): 2.95 µM
GI50 (HCT-116 colon): 0.153 µM
TGI (HCT-116 colon): 0.312 µM
GI50 (HS 578T breast): 1.03 µM
TGI (HS 578T breast): 4.23 µM
GI50 (M14 melanoma): 0.357 µM
TGI (M14 melanoma): 1.55 µM
GI50 (NCI-H226 lung): 1.65 µM
TGI (NCI-H226 lung): 3.56 µM
GI50 (RXF 393 renal): 0.0274 µM
TGI (RXF 393 renal): 0.102 µM
GI50 (SF-268 CNS): 1.08 µM
TGI (SF-268 CNS): 2.49 µM
GI50 (SNB-75 CNS): 1.26 µM
TGI (SNB-75 CNS): 2.52 µM

Oc1cc(O)c2c(-c3c(O)c(-c4ccc(O)c(O)c4)[o+]c4cc(O)cc(O)c34)c(O)c(-c3ccc(O)c(O)c3)[o+]c2c1
TGI (EKVX NSCLC): 86.8 µM
TGI (HCT-116 colon): > 100 µM
TGI (M14 melanoma): > 100 µM
TGI (NCI-H226 lung): 64 µM
TGI (RXF 393 renal): 81.1 µM
TGI (SF-268 CNS): > 100 µM
TGI (SNB-75 CNS): 61.8 µM
